Assay results taken from patent US8518885B2, “Heterocyclic peptide ketoamides” (Georgia Tech Research Corporation, priority 2008, dated 2013).

Columns and labels:
μI-II = μI-II (Rattus norvegicus, UniProt P97571); test: Fluorimetric FRET-substrate assay of μI-II inhibition; format: biochemical; settings: inhibitor 50 μM; 125 nM μI-II; 1.3 μM (EDANS)-EPLFAERK-(DABCYL); 4 mM CaCl2; FIG. 1B
Method: (§1) FIG. 1 is a pair of graphs showing the inhibitory effect of Z-Leu-Abu-CONH—(CH2)3-adenin-9-yl, and Z-Leu-Abu-CONH—(CH2)3-(4-methylpiperazin-1-yl) on m-calpain (FIG. 1A) and μI-II (FIG. 1B). Duplicate assays were performed by adding 1.3 μM (EDANS)-EPLFAERK(SEQ ID NO:1)-(DABCYL) (A), 125 nM calpain (B), and 4 mM CaCl2 (C), then averaged to yield the plots shown. Autolytic inactivation of m-calpain, but not μI-II, was observed when no inhibitor was added (X). Immediately following addition of each inhibitor (D), the increase in fluorescence intensity was attenuated.
(§2) Enzymatic activity was monitored in real-time using a 1.5 mL quartz cuvette and a Perkin-Elmer LS50-B Luminescence Spectrophotometer. Duplicate assays were performed with 1.3 μM (EDANS)-EPLFAERK(SEQ ID NO:1)-(DABCYL) and 125 nM μI-II or m-calpain in a buffer solution containing 50 mM HEPES-HCl (pH 7.7) and 10 mM DTT. The reaction was initiated 420 seconds after mixing by the addition of 4 mM CaCl2 and monitored at excitation and emission wavelengths of 335 nm and 500 nm, respectively. After a waiting period of 100 seconds, the inhibitor solution (either Z-Leu-Abu-CONH—(CH2)3-adenin-9-yl, or Z-Leu-Abu-CONH—(CH2)3-(4-methylpiperazin-1-yl) dissolved in DMSO) was added at a concentration of 1 μM (for the m-calpain assays) or 50 μM (for the μI-II assays). […]

m-calpain = biological target: T1, m-calpain (Rattus norvegicus, UniProt Q07009); test: Fluorimetric FRET-substrate assay of m-calpain inhibition; format: biochemical; settings: inhibitor 1 μM; 125 nM m-calpain; 1.3 μM (EDANS)-EPLFAERK-(DABCYL); 4 mM CaCl2; FIG. 1A
T1 sequence (Q07009 1-700): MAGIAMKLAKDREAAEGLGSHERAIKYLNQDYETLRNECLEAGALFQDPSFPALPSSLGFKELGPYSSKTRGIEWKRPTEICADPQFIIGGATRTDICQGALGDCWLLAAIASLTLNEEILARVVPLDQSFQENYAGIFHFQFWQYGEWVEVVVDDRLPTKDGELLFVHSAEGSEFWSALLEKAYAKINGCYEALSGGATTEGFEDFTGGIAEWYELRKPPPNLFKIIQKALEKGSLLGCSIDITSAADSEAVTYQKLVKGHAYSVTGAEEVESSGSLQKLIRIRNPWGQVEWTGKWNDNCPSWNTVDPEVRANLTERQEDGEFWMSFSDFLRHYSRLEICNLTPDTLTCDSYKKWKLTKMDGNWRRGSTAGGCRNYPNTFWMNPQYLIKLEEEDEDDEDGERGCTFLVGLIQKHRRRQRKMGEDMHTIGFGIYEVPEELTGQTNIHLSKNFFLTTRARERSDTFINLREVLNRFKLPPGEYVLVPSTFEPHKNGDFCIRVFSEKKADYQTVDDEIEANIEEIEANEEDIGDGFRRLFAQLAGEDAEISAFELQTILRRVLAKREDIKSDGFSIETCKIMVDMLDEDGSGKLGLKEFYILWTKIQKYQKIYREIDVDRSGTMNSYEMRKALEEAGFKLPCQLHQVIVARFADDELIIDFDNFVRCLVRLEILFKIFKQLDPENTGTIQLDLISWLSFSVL
T1 sequence (Q64537 87-270 partner limits assumed): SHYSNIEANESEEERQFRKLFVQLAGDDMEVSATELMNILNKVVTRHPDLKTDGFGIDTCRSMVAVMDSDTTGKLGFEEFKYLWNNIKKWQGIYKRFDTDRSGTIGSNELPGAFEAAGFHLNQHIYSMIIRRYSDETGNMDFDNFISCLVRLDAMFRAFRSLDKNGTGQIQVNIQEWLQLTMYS
Method: as §1, §2

calpain II = settings: literature statement; cited from earlier work
[1] = tested on: other cysteine proteases such as cathepsins; settings: literature statement; cited from earlier work
calpain I = biological target: T2, calpain I (Homo sapiens, UniProt P07384); settings: literature statement; cited from earlier work
T2 sequence (P07384 1-714): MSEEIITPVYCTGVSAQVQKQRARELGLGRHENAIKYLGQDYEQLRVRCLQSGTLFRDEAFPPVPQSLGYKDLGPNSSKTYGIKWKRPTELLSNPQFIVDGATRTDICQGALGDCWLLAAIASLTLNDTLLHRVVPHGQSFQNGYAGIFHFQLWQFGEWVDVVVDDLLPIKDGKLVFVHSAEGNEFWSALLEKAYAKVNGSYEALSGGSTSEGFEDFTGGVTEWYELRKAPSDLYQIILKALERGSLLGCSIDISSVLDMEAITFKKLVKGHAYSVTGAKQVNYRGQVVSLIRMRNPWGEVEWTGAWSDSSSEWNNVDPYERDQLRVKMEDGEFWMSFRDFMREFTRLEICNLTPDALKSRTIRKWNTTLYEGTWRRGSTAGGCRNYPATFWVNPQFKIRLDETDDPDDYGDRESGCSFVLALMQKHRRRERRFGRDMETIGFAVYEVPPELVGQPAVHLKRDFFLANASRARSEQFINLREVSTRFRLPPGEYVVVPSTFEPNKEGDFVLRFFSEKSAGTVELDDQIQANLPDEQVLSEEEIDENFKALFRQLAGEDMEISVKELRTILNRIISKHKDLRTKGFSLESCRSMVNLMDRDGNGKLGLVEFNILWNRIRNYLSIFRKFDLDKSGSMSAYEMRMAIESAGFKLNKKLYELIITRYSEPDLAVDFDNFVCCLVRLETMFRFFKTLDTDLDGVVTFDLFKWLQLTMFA
T2 sequence (P04632 1-268 partner): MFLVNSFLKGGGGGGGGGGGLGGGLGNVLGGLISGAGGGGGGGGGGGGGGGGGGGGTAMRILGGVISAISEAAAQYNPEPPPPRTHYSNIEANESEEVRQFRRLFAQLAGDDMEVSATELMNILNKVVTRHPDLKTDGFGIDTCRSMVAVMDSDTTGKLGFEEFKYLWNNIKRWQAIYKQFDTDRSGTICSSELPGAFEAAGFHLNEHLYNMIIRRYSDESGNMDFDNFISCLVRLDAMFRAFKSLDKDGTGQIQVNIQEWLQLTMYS

Chain of μI-II (P97571 55-354 limits assumed): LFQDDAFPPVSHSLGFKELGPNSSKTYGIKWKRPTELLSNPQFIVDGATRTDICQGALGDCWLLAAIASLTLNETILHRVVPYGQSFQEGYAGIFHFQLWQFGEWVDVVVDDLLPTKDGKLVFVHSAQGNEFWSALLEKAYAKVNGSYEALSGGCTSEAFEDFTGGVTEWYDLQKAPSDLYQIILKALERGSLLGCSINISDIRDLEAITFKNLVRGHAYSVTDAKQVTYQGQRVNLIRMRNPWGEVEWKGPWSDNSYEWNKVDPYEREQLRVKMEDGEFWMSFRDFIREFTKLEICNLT

Structure (SMILES)	attenuation of the increase in fluorescence intensity (cleavage of FRET substrate) by μI-II (μI-II)	attenuation of the increase in fluorescence intensity (cleavage of FRET substrate) by m-calpain (m-calpain)	inhibition of calpain II (calpain II)	inhibitory activity toward other cysteine proteases such as cathepsins [1]	inhibition of calpain I (calpain I)
CCC(NC(=O)[C@H](CC(C)C)NC(=O)OCc1ccccc1)C(=O)C(=O)NCCCN1CCN(C)CC1 (stereo partly drawn) [3-(Benzyloxycarbonyl-L-leucylamino)-N-(3-(4-methylpiperazin-1-yl)propyl)-2-oxopentanamide]	immediately attenuated	immediately attenuated	–	–	–
CCC(NC(=O)[C@H](CC(C)C)NC(=O)OCc1ccccc1)C(=O)C(=O)NCCCn1cnc2c(N)ncnc21 (stereo partly drawn) [Z-Leu-Abu-CONH—(CH2)3-adenin-9-yl, 3-(Benzyloxycarbonyl-L-leucylamino)-N-(3-(6-amino-9H-purin-9-yl)propyl)-2-oxopentanamide]	more distinct attenuation of fluorescence	more distinct attenuation of fluorescence	–	–	–
CCC(NC(=O)[C@H](CC(C)C)NC(=O)OCc1ccccc1)C(=O)C(=O)NCCCN1CCOCC1 (stereo partly drawn) [AK295, Z-Leu-Abu-CONH—(CH2)3-4-morpholinyl]	–	–	potent transition-state inhibitor	some inhibitory activity	potent transition-state inhibitor
